Test results: PubChem BioAssay (NCI)
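48-hour exposure; five concentrations; linearly interpolated endpoints. TGI: concentration producing complete growth inhibition.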

Tests used:
Assay in all cases: NCI tumour cell line growth inhibition, 48 h
SNB-75 CNS = system: SNB-75 CNS
OVCAR-3 ovarian = system: OVCAR-3 ovarian
PC-3 prostate = system: PC-3 prostate
HOP-62 NSCLC = system: HOP-62 NSCLC
U251 CNS = system: U251 CNS
NCI-H23 lung = system: NCI-H23 lung
MOLT-4 leukemia = system: MOLT-4 leukemia
MDA-N = system: MDA-N
UACC-257 melanoma = system: UACC-257 melanoma
ACHN renal = system: ACHN renal
RPMI-8226 leukemia = system: RPMI-8226 leukemia
HT29 colon = system: HT29 colon
SF-539 CNS = system: SF-539 CNS
HS 578T breast = system: HS 578T breast
BT-549 breast = system: BT-549 breast
HOP-92 NSCLC = system: HOP-92 NSCLC
SK-MEL-2 melanoma = system: SK-MEL-2 melanoma
MDA-MB-231 breast = system: MDA-MB-231 breast
OVCAR-5 ovarian = system: OVCAR-5 ovarian
CAKI-1 renal = system: CAKI-1 renal

SMILES | TGI (SNB-75 CNS) [µM] | TGI (OVCAR-3 ovarian) [µM] | TGI (PC-3 prostate) [µM] | TGI (HOP-62 NSCLC) [µM] | TGI (U251 CNS) [µM] | TGI (NCI-H23 lung) [µM] | TGI (MOLT-4 leukemia) [µM] | TGI (MDA-N) [µM] | TGI (UACC-257 melanoma) [µM] | TGI (ACHN renal) [µM] | TGI (RPMI-8226 leukemia) [µM] | TGI (HT29 colon) [µM] | TGI (SF-539 CNS) [µM] | TGI (HS 578T breast) [µM] | TGI (BT-549 breast) [µM] | TGI (HOP-92 NSCLC) [µM] | TGI (SK-MEL-2 melanoma) [µM] | TGI (MDA-MB-231 breast) [µM] | TGI (OVCAR-5 ovarian) [µM] | TGI (CAKI-1 renal) [µM]
COc1cc2cc(C(=O)N3CC(CCl)c4c3cc([N+](=O)[O-])c3ccccc43)[nH]c2c(OC)c1OC (centres undefined) | > 100 | > 100 | > 100 | > 100 | > 100 | > 100 | > 100 | > 100 | > 100 | > 100 | > 100 | > 100 | > 100 | > 100 | > 100 | > 100 | > 100 | > 100 | > 100 | > 100
CSc1c(C(=O)Nc2ccc(Cl)cc2)c(N)nn1-c1ccccc1 | > 86.3 | > 100 | > 100 | > 100 | > 100 | > 100 | > 100 | > 100 | > 100 | > 100 | > 100 | > 100 | > 100 | > 100 | > 100 | > 100 | > 100 | > 100 | > 100 | > 100
CC1(c2ccc(F)cc2)CC(c2ccc(F)cc2)=C(C#N)C(=C(C#N)C#N)N1 (centres undefined) | 34.2 | 19.4 | 31.4 | 38.6 | 31.5 | 36.5 | 34.8 | 34.3 | 28.9 | 30.2 | > 100 | 32.1 | 78.4 | 64.1 | 53 | 34.9 | 34.4 | 43.9 | 38.5 | 30.2
CC1=NN(C(=O)CC(=O)Nc2ccccc2C)C(=O)C1N=Nc1ccc(C(=O)O)cc1 (centres undefined) | > 100 | > 100 | > 100 | > 100 | > 100 | > 100 | > 100 | > 100 | > 100 | > 100 | > 100 | > 100 | > 100 | > 100 | > 100 | > 100 | > 100 | > 100 | > 100 | > 100
C=CC(Cl)(CBr)CCC(Br)=C(C)C (centres undefined) | 91.4 | 55.3 | 52.7 | > 100 | 30.5 | 68.5 | > 100 | 40.8 | 59.5 | 49.7 | 54.5 | 39.8 | 44 | 76.2 | 44.4 | 35.2 | 36.8 | 37.5 | 61.2 | 21.2
COc1cc(N=CN(C)C)c2ncccc2c1 | > 100 | > 100 | > 100 | > 100 | > 100 | > 100 | > 100 | 56 | > 100 | > 100 | > 100 | > 100 | > 100 | > 100 | > 100 | > 100 | > 100 | > 100 | > 100 | > 100
O=C(O)CNC(=O)CO/N=C1/C(c2c(O)[nH]c3ccccc23)=Nc2ccccc21 | > 100 | > 100 | > 100 | 87.3 | > 100 | > 100 | > 100 | > 100 | > 100 | > 100 | > 100 | > 100 | > 100 | > 100 | > 100 | > 100 | > 100 | > 100 | > 100 | > 100
CC(C)/C(Cl)=N\OC(=O)Nc1cccc(F)c1 | 55.6 | 32.4 | 30.2 | > 31.6 | 33.4 | 34.2 | 6.29 | 29.5 | 30 | 27.8 | 15.3 | 43.6 | 35.4 | 63.2 | 19.5 | 4.69 | 18.9 | 31.4 | 35.1 | 32.5
CCOc1ccc(N=NC2C(=O)N(C(=O)CC(=O)Nc3ccccc3OC)N=C2C)cc1 (centres undefined) | 23.6 | > 100 | > 100 | > 49.5 | > 63.4 | > 100 | > 100 | 6.14 | > 100 | > 100 | > 100 | > 100 | > 57.9 | > 100 | > 48.4 | > 50.6 | > 58.7 | > 51.7 | > 100 | > 64.7
N#Cc1c(-c2ccc(Cl)cc2)cc(-c2ccc(Nc3ccnc4cc(C(F)(F)F)ccc34)cc2)[nH]c1=O | > 50 | 20.6 | > 100 | > 57.7 | > 100 | > 100 | 20.7 | 11.9 | > 100 | > 100 | > 73.7 | > 48.9 | 18.5 | > 100 | 35.5 | 32.7 | > 100 | 65.8 | > 65 | > 64.3
COC1=C2CC(C)CC(OC)[C@@H](OC(=O)CCN)[C@H](C)/C=C(\C)C(OC(N)=O)C(OC)/C=C\C=C(/C)C(=O)NC(=CC1=O)C2=O (some centres undefined) | 35.1 | 8.19 | 15.1 | 15.4 | 6.19 | 6.22 | 2.53 | 12.7 | 2.82 | 16 | 14.5 | 13.1 | 14.9 | 16.9 | 16.9 | 2.05 | 22.7 | 7.47 | 21.1 | 17.7
COC(OC)C1OC(CO)C(n2cc(C)c(=O)[nH]c2=O)C1O (centres undefined) | > 100 | > 100 | > 100 | > 100 | > 100 | > 100 | > 100 | > 100 | > 100 | > 100 | > 100 | > 100 | > 100 | > 100 | > 100 | > 100 | > 100 | > 100 | > 100 | > 100
C#CCOC(=O)c1ccccc1O | > 100 |  | > 100 | > 100 | > 100 | > 100 | > 100 | > 100 | > 100 | > 100 | > 100 |  | > 100 | > 100 | > 100 | > 100 | > 100 | > 100 | > 100 | > 100
CC(=N/NC(=S)N1CCCCC1)/C(=N\NC(=S)N1CCCCC1)c1ccccc1 | 3.59 | 3.34 | 3.55 | 4.43 | 3.53 | 5.16 | > 100 | 7.64 | 4.52 | 3.01 | > 100 | 4.71 | 10.6 | 4.82 | 3.56 | 3.36 | 4.62 | > 19.8 | 3.87 | 4.22
O=C1/C(=C/c2cccnc2)C(n2cccc2)c2c(Br)sc(Br)c21 (centres undefined) | 3.67 | 3.31 | 4.86 | 7.36 | 3.08 | 9.18 | 5.34 | 4.24 | 3.36 | 7.69 | 4.94 | 11.1 | 9.5 | 9.66 | 37.6 | 4.64 | 4.63 | 3.3 | 31.9 | 7.51
O=C1CCCCC/C1=C\c1ccc(F)cc1 | > 100 | > 100 | > 100 | > 100 | > 100 | > 100 | > 100 | > 100 | > 100 | > 100 | > 100 | > 100 |  | > 100 | > 100 | > 100 | > 100 | > 100 | > 100 | > 100
O=C1/C(=C\c2ccc(Cl)cc2Cl)Sc2scc(-c3cccc([N+](=O)[O-])c3)[n+]21 | > 69.8 | 23.4 | 33.1 | 37.1 | 44.1 | 31.5 | 3.94 | 16.7 | 18.3 | 12.6 | 26.9 | 10.9 |  | > 100 | 18.1 | 18.3 | 30.3 | 25.1 | 34.4 | 8.21
CC(C)(C)OC(=O)N(O)[C@@H]1C=C[C@H](n2cnc3c(N)ncnc32)C1 | > 100 | > 100 | > 100 | > 100 | > 100 | > 100 | > 100 | > 100 | > 100 | > 100 | > 100 |  | > 100 | > 100 | > 100 | > 100 | > 100 | > 100 | > 100 | > 100
O=C(O)CN1CCNCCN(CP(=O)(O)O)CC1 | > 100 | > 100 | > 100 | > 100 | > 100 | > 100 | > 100 | > 100 | > 100 | > 100 | > 100 |  | > 100 | > 100 | > 100 | > 100 | > 100 | > 100 | > 100 | > 100
